Results on two compounds are retold here after ChEMBL document CHEMBL5096164, “In Vivo Profiling of a Natural Alkaloid, Anatabine, in Rodents: Pharmacokinetics and Anti-Inflammatory Efficacy” (J Nat Prod, 2021).

Data set [1] has as its system Mus musculus. Description: Antiinflammatory activity in LPS induced mouse model assessed as reduction in tumor necrosis factor alpha level in plasma at 1 mg/kg, po preincubated for 1 hr followed by LPS stimulation and measured after 2 hrs by ELISA method relative to control. The data set is classed as functional. The note with it: time 3 hrs. Further details: scale not given: the % may be the effect or the level left. A general note: An ELISA detects its analyte on a solid surface through an enzyme-linked reagent.

In data set [2] the test system is Mus musculus. Kind of data set: Antiinflammatory activity in LPS induced mouse model assessed as reduction in IL-6 level in plasma at 1 mg/kg, po preincubated for 1 hr followed by LPS stimulation and measured after 2 hrs by ELISA method relative to control. The data set is classed as functional. On the set-up: scale not given: the % may be the effect or the level left. The note with it: time 3 hrs.

The nature of data set [3]: Half life in mouse plasma.
A short description of another data set: in vivo. The note with it: rat, plasma.

`C[C@@H]1C[C@H]2[C@@H]3CCC4=CC(=O)C=C[C@]4(C)[C@@]3(F)[C@@H](O)C[C@]2(C)[C@@]1(O)C(=O)CO` [DEXAMETHASONE]: the Activity is recorded as 72.1% with Mus musculus [1] and 46.9% in the data set on Mus musculus [2].

Regarding `CN1CCC[C@H]1c1cccnc1` [NICOTINE], the half-life (commonly the time in which the quantity being followed falls by half) came to 6 min in data set [3] and 54 min in “in vivo”.
